# Values of other authors as cited in patent US7442701B2, “Amino-heterocycles as VR-1 antagonists for treating pain” (Merck Sharp & Dohme Ltd., priority 2002, dated 2008).
# Target: VR1 (Rattus norvegicus, UniProt O35433)
# Details: Wahl et al., Mol. Pharmacol., 59:9, 2001
# VR1, sequence (O35433 whole entry): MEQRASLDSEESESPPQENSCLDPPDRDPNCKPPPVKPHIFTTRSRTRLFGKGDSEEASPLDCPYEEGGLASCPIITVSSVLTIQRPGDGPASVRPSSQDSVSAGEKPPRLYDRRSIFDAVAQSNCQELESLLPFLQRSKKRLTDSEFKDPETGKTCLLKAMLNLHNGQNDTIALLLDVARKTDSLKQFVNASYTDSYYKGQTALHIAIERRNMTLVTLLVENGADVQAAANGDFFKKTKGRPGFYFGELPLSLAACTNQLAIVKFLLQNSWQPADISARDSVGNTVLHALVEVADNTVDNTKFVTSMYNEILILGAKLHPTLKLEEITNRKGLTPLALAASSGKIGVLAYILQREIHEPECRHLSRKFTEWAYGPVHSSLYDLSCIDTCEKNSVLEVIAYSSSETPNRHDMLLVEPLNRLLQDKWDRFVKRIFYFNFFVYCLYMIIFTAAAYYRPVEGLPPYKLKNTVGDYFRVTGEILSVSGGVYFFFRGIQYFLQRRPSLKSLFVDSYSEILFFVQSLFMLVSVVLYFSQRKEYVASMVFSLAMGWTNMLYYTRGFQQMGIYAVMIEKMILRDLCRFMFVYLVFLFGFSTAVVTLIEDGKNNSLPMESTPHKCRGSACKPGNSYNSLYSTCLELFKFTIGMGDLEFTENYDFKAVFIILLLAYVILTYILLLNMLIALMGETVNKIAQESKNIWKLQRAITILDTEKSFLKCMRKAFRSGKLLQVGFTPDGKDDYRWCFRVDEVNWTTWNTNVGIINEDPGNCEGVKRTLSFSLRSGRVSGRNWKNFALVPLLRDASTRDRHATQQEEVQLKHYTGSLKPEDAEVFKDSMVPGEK
compound,measurement,value
C=C(C)[C@]12C[C@@H](C)[C@@]34O[C@](Cc5ccccc5)(O[C@@H]1[C@@H]3C=C(COC(=O)Cc1cc(I)c(O)c(OC)c1)C[C@]1(O)C(=O)C(C)=C[C@@H]41)O2 [Iodo-resiniferatoxin],antagonist of VR1,nanomolar antagonist
